Activity calls are given as the source filed them. The calls are words filed in the database; no cut-off is given here.
Tests used:
Staphylococcus aureus [1] = assay: Antibacterial activity against Staphylococcus aureus ATCC 11632 at 80 uM/ml after 24 hrs by kirby-bauer method; type: functional; conditions: ATCC 11632, 24 h, read-out: IZ
Trichoderma viride [2] = assay: Antifungal activity against Trichoderma viride MTCC 1107 at 160 uM/ml after 48 hrs by paper disc diffusion method; type: functional; conditions: MTCC 1107, 48 h, read-out: IZ
Escherichia coli [3] = assay: Antibacterial activity against Escherichia coli ATCC 35218 at 40 uM/ml after 24 hrs by kirby-bauer method; type: functional; conditions: ATCC 35218, 24 h, read-out: IZ
Aspergillus flavus [4] = assay: Antifungal activity against Aspergillus flavus MTCC 1021 at 40 uM/ml after 48 hrs by paper disc diffusion method; type: functional
Curvularia lunata [5] = assay: Antifungal activity against Curvularia lunata MTCC 581 at 40 uM/ml after 48 hrs by paper disc diffusion method; type: functional; conditions: MTCC 581, 48 h, read-out: IZ
[6] = test system: Burkholderia pseudomallei; assay: Antibacterial activity against Burkholderia pseudomallei NTCC 10274 at 40 uM/ml after 24 hrs by kirby-bauer method; type: functional
Staphylococcus aureus [7] = assay: Antibacterial activity against Staphylococcus aureus ATCC 11632 at 20 uM/ml after 24 hrs by kirby-bauer method; type: functional
Escherichia coli [8] = assay: Antibacterial activity against Escherichia coli ATCC 35218 at 20 uM/ml after 24 hrs by kirby-bauer method; type: functional
Staphylococcus aureus [9] = assay: Antibacterial activity against Staphylococcus aureus ATCC 11632 at 40 uM/ml after 24 hrs by kirby-bauer method; type: functional
Aspergillus niger [10] = assay: Antifungal activity against Aspergillus niger MTCC 1108 at 20 uM/ml after 48 hrs by paper disc diffusion method; type: functional
Salmonella typhimurium [11] = assay: Antibacterial activity against Salmonella typhimurium ATCC 23564 at 160 uM/ml after 24 hrs by kirby-bauer method; type: functional, Salmonella enterica subsp. enterica serovar Typhimurium; conditions: Salmonella enterica, ATCC 23564, 24 h; read-out: IZ
Trichoderma viride [12] = assay: Antifungal activity against Trichoderma viride MTCC 1107 at 40 uM/ml after 48 hrs by paper disc diffusion method; type: functional; conditions: MTCC 1107, 48 h, read-out: IZ
Trichoderma viride [13] = assay: Antifungal activity against Trichoderma viride MTCC 1107 at 20 uM/ml after 48 hrs by paper disc diffusion method; type: functional
Salmonella typhimurium [14] = assay: Antibacterial activity against Salmonella typhimurium ATCC 23564 at 40 uM/ml after 24 hrs by kirby-bauer method; type: functional, Salmonella enterica subsp. enterica serovar Typhimurium
Pseudomonas aeruginosa [15] = assay: Antibacterial activity against Pseudomonas aeruginosa ATCC 15499 at 160 uM/ml after 24 hrs by kirby-bauer method; type: functional; conditions: ATCC 15499, 24 h, read-out: IZ
[16] = test system: Burkholderia pseudomallei; assay: Antibacterial activity against Burkholderia pseudomallei NTCC 10274 at 20 uM/ml after 24 hrs by kirby-bauer method; type: functional
Aspergillus niger [17] = assay: Antifungal activity against Aspergillus niger MTCC 1108 at 80 uM/ml after 48 hrs by paper disc diffusion method; type: functional; conditions: MTCC 1108, 48 h, read-out: IZ
Aspergillus flavus [18] = assay: Antifungal activity against Aspergillus flavus MTCC 1021 at 20 uM/ml after 48 hrs by paper disc diffusion method; type: functional
[19] = test system: Burkholderia pseudomallei; assay: Antibacterial activity against Burkholderia pseudomallei NTCC 10274 at 160 uM/ml after 24 hrs by kirby-bauer method; type: functional; conditions: NTCC 10274, 24 h, read-out: IZ
Aspergillus niger [20] = assay: Antifungal activity against Aspergillus niger MTCC 1108 at 160 uM/ml after 48 hrs by paper disc diffusion method; type: functional; conditions: MTCC 1108, 48 h, read-out: IZ
Pseudomonas aeruginosa [21] = assay: Antibacterial activity against Pseudomonas aeruginosa ATCC 15499 at 40 uM/ml after 24 hrs by kirby-bauer method; type: functional
Curvularia lunata [22] = assay: Antifungal activity against Curvularia lunata MTCC 581 at 80 uM/ml after 48 hrs by paper disc diffusion method; type: functional; conditions: MTCC 581, 48 h, read-out: IZ
Aspergillus flavus [23] = assay: Antifungal activity against Aspergillus flavus MTCC 1021 at 80 uM/ml after 48 hrs by paper disc diffusion method; type: functional
Aspergillus niger [24] = assay: Antifungal activity against Aspergillus niger MTCC 1108 at 40 uM/ml after 48 hrs by paper disc diffusion method; type: functional; conditions: MTCC 1108, 48 h, read-out: IZ
Pseudomonas aeruginosa [25] = assay: Antibacterial activity against Pseudomonas aeruginosa ATCC 15499 at 20 uM/ml after 24 hrs by kirby-bauer method; type: functional
Staphylococcus aureus [26] = assay: Antibacterial activity against Staphylococcus aureus ATCC 11632 at 160 uM/ml after 24 hrs by kirby-bauer method; type: functional; conditions: ATCC 11632, 24 h, read-out: IZ
[27] = test system: Burkholderia pseudomallei; assay: Antibacterial activity against Burkholderia pseudomallei NTCC 10274 at 80 uM/ml after 24 hrs by kirby-bauer method; type: functional; conditions: NTCC 10274, 24 h, read-out: IZ
Trichoderma viride [28] = assay: Antifungal activity against Trichoderma viride MTCC 1107 at 80 uM/ml after 48 hrs by paper disc diffusion method; type: functional; conditions: MTCC 1107, 48 h, read-out: IZ
Escherichia coli [29] = assay: Antibacterial activity against Escherichia coli ATCC 35218 at 80 uM/ml after 24 hrs by kirby-bauer method; type: functional; conditions: ATCC 35218, 24 h, read-out: IZ
Curvularia lunata [30] = assay: Antifungal activity against Curvularia lunata MTCC 581 at 160 uM/ml after 48 hrs by paper disc diffusion method; type: functional; conditions: MTCC 581, 48 h, read-out: IZ
Pseudomonas aeruginosa [31] = assay: Antibacterial activity against Pseudomonas aeruginosa ATCC 15499 at 80 uM/ml after 24 hrs by kirby-bauer method; type: functional; conditions: ATCC 15499, 24 h, read-out: IZ
Escherichia coli [32] = assay: Antibacterial activity against Escherichia coli ATCC 35218 at 160 uM/ml after 24 hrs by kirby-bauer method; type: functional
Aspergillus flavus [33] = assay: Antifungal activity against Aspergillus flavus MTCC 1021 at 160 uM/ml after 48 hrs by paper disc diffusion method; type: functional; conditions: MTCC 1021, 48 h, read-out: IZ
Salmonella typhimurium [34] = assay: Antibacterial activity against Salmonella typhimurium ATCC 23564 at 80 uM/ml after 24 hrs by kirby-bauer method; type: functional, Salmonella enterica subsp. enterica serovar Typhimurium
Curvularia lunata [35] = assay: Antifungal activity against Curvularia lunata MTCC 581 at 20 uM/ml after 48 hrs by paper disc diffusion method; type: functional; conditions: MTCC 581, 48 h, read-out: IZ
Salmonella typhimurium [36] = assay: Antibacterial activity against Salmonella typhimurium ATCC 23564 at 20 uM/ml after 24 hrs by kirby-bauer method; type: functional; conditions: Salmonella enterica subsp. enterica serovar Typhimurium
QG-56 = assay: Cytotoxicity against human QG56 cells after 48 hrs by MTT assay; type: functional, cell-based
[37] = Salmonella enterica, ATCC 23564, 24 h, read-out: IZ
[38] = Salmonella enterica subsp. enterica serovar Typhimurium

Compound | zone of inhibition at 80 µM (Staphylococcus aureus [1]) | IC50 (HCT-116) | zone of inhibition at 160 µM (Trichoderma viride [2]) | inhibition zone (IZ) (Aspergillus flavus [4]) | zone of inhibition at 40 µM (Curvularia lunata [5]) | inhibition zone (IZ) (Staphylococcus aureus [7]) | inhibition zone (IZ) (Staphylococcus aureus [9]) | zone of inhibition at 160 µM (Salmonella typhimurium [11]) | zone of inhibition (Trichoderma viride [12]) | zone of inhibition at 160 µM (Pseudomonas aeruginosa [15]) | IC50 (HepG2) | zone of inhibition at 80 µM (Aspergillus niger [17]) | inhibition zone (IZ) (Aspergillus flavus [18]) | zone of inhibition at 160 µM [19] | zone of inhibition at 160 µM (Aspergillus niger [20]) | zone of inhibition at 80 µM (Curvularia lunata [22]) | inhibition zone (IZ) (Aspergillus flavus [23]) | zone of inhibition at 40 µM (Aspergillus niger [24]) | inhibition zone (IZ) (Pseudomonas aeruginosa [25]) | zone of inhibition at 160 µM (Staphylococcus aureus [26]) | other results
COc1cc(/C=C/C(=O)C2=C(/C=C/c3ccc(O)c(OC)c3)NC(=S)NC2c2ccc(O)c(OC)c2)ccc1O (stereo not given) | 9 mm | 100 uM/ml | 13 mm | inactive | 21 mm | inactive | inactive | 14 mm | 9 mm | 14 mm | 50 uM/ml | 12 mm | inactive | 21 mm | 16 mm | 22 mm | inactive | 11 mm | inactive | 11 mm | zone of inhibition at 40 µM (Escherichia coli [3]): 9 mm; zone of inhibition at 40 µM ([6]; NTCC 10274, 24 h, read-out: IZ): 16 mm; inhibition zone (IZ) (Escherichia coli [8]): inactive; zone of inhibition at 20 µM (Aspergillus niger [10]; MTCC 1108, 48 h, read-out: IZ): 9 mm; inhibition zone (IZ) (Trichoderma viride [13]): inactive; zone of inhibition at 40 µM (Salmonella typhimurium [14]; [37]): 9 mm; zone of inhibition at 20 µM ([16]; NTCC 10274, 24 h, read-out: IZ): 13 mm; zone of inhibition at 40 µM (Pseudomonas aeruginosa [21]; ATCC 15499, 24 h, read-out: IZ): 9 mm; zone of inhibition at 80 µM [27]: 18 mm; zone of inhibition at 80 µM (Trichoderma viride [28]): 11 mm; zone of inhibition at 80 µM (Escherichia coli [29]): 11 mm; zone of inhibition at 160 µM (Curvularia lunata [30]): 24 mm; zone of inhibition at 80 µM (Pseudomonas aeruginosa [31]): 11 mm; zone of inhibition at 160 µM (Escherichia coli [32]; ATCC 35218, 24 h, read-out: IZ): 14 mm; zone of inhibition at 160 µM (Aspergillus flavus [33]): 11 mm; zone of inhibition at 80 µM (Salmonella typhimurium [34]; [37]): 12 mm; zone of inhibition at 20 µM (Curvularia lunata [35]): 19 mm; inhibition zone (IZ) (Salmonella typhimurium [36]): inactive; IC50 (QG-56): 100 uM/ml
COc1cc(/C=C/C(=O)C2=C(/C=C/c3ccc(O)c(OC)c3)NC(=S)NC2c2ccc([N+](=O)[O-])cc2)ccc1O (stereo not given) | 10 mm | 100 uM/ml | 22 mm | inactive | 17 mm | inactive | inactive | 10 mm | 18 mm | 10 mm | 50 uM/ml | 11 mm | inactive | 11 mm | 13 mm | 19 mm | inactive | 9 mm | inactive | 12 mm | inhibition zone (IZ) [6]: inactive; inhibition zone (IZ) (Aspergillus niger [10]): inactive; zone of inhibition at 20 µM (Trichoderma viride [13]; MTCC 1107, 48 h, read-out: IZ): 17 mm; inhibition zone (IZ) (Salmonella typhimurium [14]; [38]): inactive; inhibition zone (IZ) [16]: inactive; inhibition zone (IZ) (Pseudomonas aeruginosa [21]): inactive; zone of inhibition at 80 µM [27]: 9 mm; zone of inhibition at 80 µM (Trichoderma viride [28]): 21 mm; zone of inhibition at 160 µM (Curvularia lunata [30]): 21 mm; zone of inhibition at 80 µM (Pseudomonas aeruginosa [31]): 9 mm; inhibition zone (IZ) (Escherichia coli [32]): inactive; zone of inhibition at 160 µM (Aspergillus flavus [33]): 11 mm; inhibition zone (IZ) (Salmonella typhimurium [34]; [38]): inactive; zone of inhibition at 20 µM (Curvularia lunata [35]): 14 mm; inhibition zone (IZ) (Salmonella typhimurium [36]): inactive; IC50 (QG-56): 50 uM/ml

— ChEMBL document CHEMBL2016493, “Design, synthesis, synergistic antimicrobial activity and cytotoxicity of 4-aryl substituted 3,4-dihydropyrimidinones of curcumin” (Bioorg Med Chem Lett, 2012)
